According to ChEMBL document CHEMBL3137386, “DNDi T. cruzi fenarimol series dataset from which preclinical candidate EPL-BS1246 was identified (see also related datasets CHEMBL2448688 and CHEMBL3137440)”:
Values after ≈ are worked out from the molar mass of the structure shown. Values joined by “and” are separate entries in the source; they are usually repeats but may differ in a detail not shown here. Identical values can stand only once.

Assays:
[1] = DNDI: Metabolism; assay type: ADME, Microsome; settings: human, microsomes; for hepatic extraction ratio: read-out: EH
[2] = DNDI: Lipophilicity (gLogD) at pH 3; assay type: physicochemical; settings: buffer
[3] = DNDI: Solubility in 0.01M HCl at pH 2 determined by nephelometry; assay type: physicochemical; settings: for solubility kinetic: 0.01 M HCl
[4] = (§1) DNDI: Cytotoxicity against L-6 rat myoblasts from skeletal muscle; assay type: toxicity, cell-based, Muscle tissue, L6; settings: rat, L6 rat skeletal muscle myoblasts
[5] = system: Trypanosoma cruzi; assay: (§2) DNDI: Chagas in vitro; assay type: functional, Tulahuen C4 (LacZ)
[6] = target: T1, Cytochrome P450 3A4 (Homo sapiens, UniProt P08684); assay: (§3) DNDI: CYP Inhibition; assay type: ADME
[7] = system: Trypanosoma brucei rhodesiense; assay: DNDI: HAT in vitro; assay type: functional, organism-based; settings: ATCC 30027
[8] = DNDI: Lipophilicity (gLogD) at pH 7.4; assay type: physicochemical; settings: buffer
[9] = system: Trypanosoma cruzi; assay: as §2; assay type: functional, organism-based, Tulahuen C4 (LacZ)
[10] = system: L6; assay: as §1; assay type: toxicity, cell-based, Muscle tissue; settings: l6
[11] = target: T1, Cytochrome P450 3A4; assay: as §3; assay type: ADME; remark: listed apart in the source
[12] = DNDI: Solubility in phosphate buffer at pH 6.5 determined by nephelometry; assay type: physicochemical
[13] = Trypanosoma cruzi, Tulahuen C4 (LacZ)

T1 sequence (P08684 whole entry): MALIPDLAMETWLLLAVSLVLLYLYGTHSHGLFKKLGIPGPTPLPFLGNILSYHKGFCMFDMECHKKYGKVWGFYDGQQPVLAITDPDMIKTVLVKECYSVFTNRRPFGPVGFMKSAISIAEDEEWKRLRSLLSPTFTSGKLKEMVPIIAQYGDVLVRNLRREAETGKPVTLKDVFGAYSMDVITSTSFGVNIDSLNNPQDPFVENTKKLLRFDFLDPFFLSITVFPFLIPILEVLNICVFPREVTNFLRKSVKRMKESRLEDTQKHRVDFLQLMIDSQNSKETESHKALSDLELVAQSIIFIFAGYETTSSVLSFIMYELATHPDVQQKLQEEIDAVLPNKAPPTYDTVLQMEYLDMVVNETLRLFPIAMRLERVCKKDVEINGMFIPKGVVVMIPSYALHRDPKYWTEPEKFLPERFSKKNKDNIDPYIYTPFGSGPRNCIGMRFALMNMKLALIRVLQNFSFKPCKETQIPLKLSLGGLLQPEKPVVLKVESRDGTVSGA

| Structure (SMILES) | Clint [1] | EH [1] | t (1 / 2) [1] | hepatic extraction ratio [1] | chromatographic logD [2] | solubility kinetic [3] | IC50 [4] | IC90 [5] | IC50 [6] | IC50 [7] | chromatographic logD [8] | IC90 [5, 13] | IC50 [9, 13] | half-life [1] | microsomal CLint [1] | IC50 [10] | IC50 [9] | IC50 [11] | solubility kinetic [12] | Kinetic ([3]; buffer) |
| --- | --- | --- | --- | --- | --- | --- | --- | --- | --- | --- | --- | --- | --- | --- | --- | --- | --- | --- | --- | --- |
| CS(=O)(=O)c1ccc(N2CCN(C(=O)C(c3ccc(C#N)cc3)c3cccnc3)CC2)cc1 (stereo unspecified) | 15 µL/min/mg and 10 µL/min/mg and < 7 µL/min/mg | 0.36 and < 0.28 | 113 min and 169 min and > 250 min | 0.46 | 1.8 | > 100 µg/mL | > 100000 nM | > 100 nM and 29.1 nM | > 20000 nM | > 10000 nM | 2.3 |  |  |  |  |  |  |  |  |  |
| O=C(c1ccccc1)N1CCN(C(=O)C(c2ccc(Cl)cc2)c2cccnc2)CC1 (stereo unspecified) |  |  |  |  |  |  | > 100000 nM |  |  | > 10000 nM |  | > 100 nM | 49.5 nM |  |  |  |  |  |  |  |
| O=C(C(c1ccc(Cl)cc1)c1cccnc1)N1CCN(c2nccs2)CC1 (stereo unspecified) |  |  |  |  |  |  | > 100000 nM |  |  | > 10000 nM |  | > 100 nM | 51 nM |  |  |  |  |  |  |  |
| CC(C)CN1CCN(C(=O)C(c2ccc(Cl)cc2)c2cccnc2)CC1 (stereo unspecified) |  |  |  |  |  |  | > 100000 nM |  |  | > 10000 nM |  | > 100 nM | 65 nM |  |  |  |  |  |  |  |
| COCCN1CCN(C(=O)C(c2ccc(Cl)cc2)c2cccnc2)CC1 (stereo unspecified) |  |  |  |  |  |  | > 100000 nM |  |  | > 10000 nM |  | > 100 nM | > 100 nM |  |  |  |  |  |  |  |
| O=C(C(c1ccc(Cl)cc1)c1cccnc1)N1CCN(Cc2cccc(C(F)(F)F)c2)CC1 (stereo unspecified) |  |  |  |  |  |  |  |  |  | > 10000 nM |  | > 100 nM | 14.8 nM |  |  |  |  |  |  |  |
| N#Cc1ccc(C(C(=O)N2CCN(c3ccc(C(F)(F)F)cc3)CC2)c2cccnc2)cc1 (stereo unspecified) | 42 µL/min/mg and 38 µL/min/mg | 0.68 and 0.7 | 41 min and 45 min | 0.66 | 3.5 | > 100 µg/mL | 73800 nM | 27 nM and 71.5 nM and > 100 nM | > 20000 nM | > 10000 nM |  |  |  | 50 min | 35 µL/min/mg | 54700 nM | 10 nM and 12 nM and 67.5 nM |  |  |  |
| O=C(C(c1ccc(Cl)cc1)c1cccnc1)N1CCN(c2ccc(C(F)(F)F)nc2)CC1 (stereo unspecified) | 36 µL/min/mg and 61 µL/min/mg | 0.77 and 0.7 | 49 min and 28 min | 0.67 | 3.2 | > 100 µg/mL | 66800 nM | > 100 nM and 1030 nM | > 20000 nM | > 10000 nM |  |  |  | 41 min | 42 µL/min/mg |  |  | 20000 nM |  |  |
| N#Cc1ccc(C(C(=O)N2CCN(c3ccc(C(F)(F)F)nc3)CC2)c2cccnc2)cc1 (stereo unspecified) | 22 µL/min/mg and 21 µL/min/mg | 0.56 and 0.54 | 77 min and 81 min | 0.4 | 2.5 | > 100 µg/mL | > 100000 nM | 81.5 nM | > 20000 nM | > 10000 nM | 3 | > 100 nM |  | 144 min | 12 µL/min/mg |  | 55 nM and > 100 nM and 20.5 nM |  | 12.5 µg/mL (≈ 27.7 µM) |  |
| O=C(C(c1ccc(Cl)cc1)c1cccnc1)N1CCN(c2ccc(C(F)(F)F)cn2)CC1 (stereo unspecified) | 28 µL/min/mg and 30 µL/min/mg | 0.61 and 0.63 | 63 min and 57 min | 0.7 | 3.8 | > 100 µg/mL | 57000 nM | > 100 nM and 400 nM | > 20000 nM | > 10000 nM |  |  |  | 41 min | 42 µL/min/mg | 59300 nM |  | 6600 nM |  | 25 µg/mL |
| N#Cc1ccc(C(C(=O)N2CCN(c3ccc(C(F)(F)F)cn3)CC2)c2cccnc2)cc1 (stereo unspecified) | 21 µL/min/mg and 23 µL/min/mg | 0.56 and 0.54 | 83 min and 77 min | 0.62 | 3.1 | > 100 µg/mL | > 100000 nM | 56.5 nM and 46.5 nM and > 100 nM | > 20000 nM | > 10000 nM |  |  |  | 60 min | 29 µL/min/mg | 78700 nM | 23 nM and 12 nM and > 100 nM |  |  |  |
| CS(=O)(=O)c1ccc(N2CCN(C(=O)C(c3ccc(Cl)cc3)c3cccnc3)CC2)cc1 (stereo unspecified) | 84 µL/min/mg and 53 µL/min/mg and 38 µL/min/mg | 0.75 and 0.68 | 21 min and 33 min and 46 min | 0.82 | 2.3 | 25 µg/mL (≈ 53.2 µM) | > 100000 nM | 214 nM and > 100 nM | 19000 nM | > 10000 nM | 2.9 |  |  |  |  | 61500 nM |  | 7100 nM |  |  |
| O=S(=O)(Cc1ccccc1)Nc1cnccc1N1CCN(c2ccc(C(F)(F)F)cc2)CC1 |  |  |  |  |  |  | > 100000 nM |  |  | > 10000 nM |  | 29 nM | 18 nM |  |  |  |  |  |  |  |
| CC(C)(C)OC(=O)N1CCN(C(=O)C(c2ccc(C#N)cc2)c2cccnc2)CC1 (stereo unspecified) |  |  |  |  |  |  | > 100000 nM |  |  | > 10000 nM |  | > 91 nM | 66 nM |  |  |  |  |  |  |  |
| CS(=O)(=O)c1ccc(N2CCN(C(=O)C(c3ccc(Cl)cc3)c3cncnc3)CC2)cc1 (stereo unspecified) | 34 µL/min/mg and 69 µL/min/mg and 40 µL/min/mg | 0.69 and 0.66 | 25 min and 43 min | 0.79 | 2.6 | 25 µg/mL (≈ 53.1 µM) | > 100000 nM |  | > 20000 nM | > 10000 nM | 2.6 | > 100 nM | 78.3 nM | 50 min |  |  | 63.5 nM and > 100 nM |  | 6.3 µg/mL (≈ 13.4 µM) |  |
| O=C(C(c1ccc(Cl)cc1)c1cncnc1)N1CCN(c2ccc(C(F)(F)F)nc2)CC1 (stereo unspecified) |  |  |  | 0.76 | 3.4 | 12.5 µg/mL (≈ 27.1 µM) | > 100000 nM |  | > 20000 nM | > 10000 nM | 3.3 | > 100 nM | 252 nM | 31 min | 56 µL/min/mg |  |  |  | 12.5 µg/mL (≈ 27.1 µM) |  |
| O=C(C(c1ccc(Cl)cc1)c1cncnc1)N1CCN(c2ccc(C(F)(F)F)cn2)CC1 (stereo unspecified) |  |  |  | 0.81 | 3.9 | 50 µg/mL (≈ 108 µM) | 52500 nM |  | 18000 nM | > 10000 nM | 3.9 | > 100 nM | 161 nM | 23 min | 76 µL/min/mg |  |  |  | 6.3 µg/mL (≈ 13.6 µM) |  |
| O=C(C(c1ccc(Cl)cc1)c1cncnc1)N1CCN(c2ccc(C(F)(F)F)cc2)CC1 (stereo unspecified) |  |  |  | 0.77 | 4.2 | 3.1 µg/mL (≈ 6.73 µM) | 51300 nM |  | 20000 nM | > 10000 nM | 4.2 | > 100 nM | 118 nM | 30 min | 59 µL/min/mg |  |  |  | 3.1 µg/mL (≈ 6.73 µM) |  |
| O=C(c1ccc(Cl)cc1)N1CCN(C(=O)C(c2ccc(Cl)cc2)c2cccnc2)CC1 (stereo unspecified) |  |  |  |  |  |  | > 100000 nM |  |  | > 10000 nM |  | > 100 nM | 22 nM |  |  |  |  |  |  |  |
| O=C(C(c1ccc(Cl)cc1)c1cccnc1)N1CCN(Cc2ccccc2C(F)(F)F)CC1 (stereo unspecified) |  |  |  | 0.96 |  |  | 54200 nM |  | 15000 nM | > 10000 nM |  | > 100 nM | > 100 nM | 4 min | 460 µL/min/mg |  |  |  |  |  |
